Reference: PMC12475274, “Harnessing indole scaffolds to identify small-molecule IRE1α inhibitors modulating XBP1 mRNA splicing” (Nature Communications, 2025)
“And” between values parts separate entries of the source, which are not always exact repeats. Identical values can stand only once. Like-named read-outs stand apart in the source and are kept apart here. Each block holds one molecule with its values, some of them ahead of it.

Assays:
[1] = target: T1, IRE1α (Homo sapiens, UniProt O75460); test: Differential scanning fluorimetry (DSF), IRE1α; type: binding; details: for IRE1 ∆Tm(°C): Supplementary Fig. 3c, replicate values
T1 construct: Human IRE1α kinase and RNase domain (residues 547–977) was subcloned into pLIB plasmid; His tag (with TEV cleavage site) (N, cleaved yes); made in house; host or cells: Sf9 insect cells, baculovirus (Bac-to-Bac)
Procedure: (§1) The DSF assay was performed in PBS buffer containing 2 mM DTT, in a total reaction volume of 20 µl with indicated compounds (final 1% DMSO) and the final concentration of 1 µM IRE1α protein and 5× SYPRO Orange fluorescent dye (5000× in DMSO, Sigma S5692). The melting curve was measured at a temperature range from 25 °C to 95 °C and in increments of 1 °C for 30 s using a Bio-Rad CFX96 Real-Time PCR detection system with the FRET scan mode. The melting temperature (Tm) was obtained by fitting the melting curve to Boltzmann sigmoidal in GraphPad Prism and the thermal shift (∆Tm) was calculated by using the equation: ∆Tm = Tm(compound) -Tm(DMSO).

[2] = target: T2, p-IRE1α (Homo sapiens, UniProt O75460); test: Differential scanning fluorimetry (DSF), p-IRE1α; type: binding; details: individual replicate values
T2 construct: Human IRE1α kinase and RNase domain (residues 547–977) was subcloned into pLIB plasmid; His tag (with TEV cleavage site) (N, cleaved yes); made in house; host or cells: Sf9 insect cells, baculovirus (Bac-to-Bac)
Procedure: as §1

[3] = target: T3, phosphorylated IRE1α (p-IRE1α) (Homo sapiens, UniProt O75460); test: FRET-based IRE1α RNase activity assay, phosphorylated IRE1α; type: biochemical; details: for inhibition at 50 µM: read-out: p-IRE1α inhibition%
T3 construct: Human IRE1α kinase and RNase domain (residues 547–977) was subcloned into pLIB plasmid; His tag (with TEV cleavage site) (N, cleaved yes); made in house; host or cells: Sf9 insect cells, baculovirus (Bac-to-Bac)
Procedure: (§2) Human IRE1α kinase and RNase domain (residues 547–977) was subcloned into pLIB plasmid with a His tag and TEV cleavage site, and expressed using Bac-to-Bac expression system. The primers used are listed in Supplementary Table S3. The protein purification was performed following established procedures. Briefly, Sf9 cells were infected with baculovirus and incubated at 27 °C 110 rpm for 72 h. The cells were collected by centrifugation at 4000 × g for 15 min and the cell pellet was resuspended in lysis buffer (50 mM HEPES pH 7.5, 300 mM NaCl, 10% glycerol, 1 mM MgCl2, 1 mM TCEP, 5 mM imidazole), then supplemented with 1:10,000 benzonase (Sigma, E1014), 1 tablet/25 mL […]™ Protease Inhibitor Cocktail tablets (Sigma, S8830) and 1 mM PMSF before lysed by sonication at 4 °C. […] The protein elution was incubated with TEV protease to remove His tag at 4 °C overnight. Then the sample was diluted 1:6 in buffer (50 mM HEPES pH 7.5, 1 mM TCEP, 5% glycerol) and loaded onto a 5 mL pre-packaged Q HP anion exchange column (Cytiva, HiTrap Q HP) pre-equilibrated with QA buffer (50 mM HEPES pH 7.5, 50 mM NaCl, 1 mM TCEP, 5% glycerol). The unphosphorylated and phosphorylated protein was separated by eluting the protein with a very shallow gradient with 0-30% buffer QB (50 mM HEPES pH 7.5, 1 M NaCl, 1 mM TCEP, 5% glycerol) over 80 CV. Different peaks were collected separately and verified by LC-MS. The fully phosphorylated fraction was collected and further purified by size exclusion chromatography (Cytiva, HiLoad 16/600 Superdex 200 pg,) with SEC buffer (25 mM HEPES pH 7.5, 250 mM NaCl, 1 mM TCEP, 10% glycerol) and fractioned as monomeric peak. The rest protein fraction from the Q HP anion exchange column was incubated with Lambda protein phosphatase (New England BioLabs, P0753S) overnight at 4 °C, the dephosphorylation was confirmed by LC-MS. The unphosphorylated protein was further purified by size exclusion chromatography with the SEC buffer described above. The purified phosphorylated (p-IRE1α) and dephosphorylated (IRE1α) protein aliquots were stored at −80 °C for future usage.
(§3) The dual-labeled RNA substrate with a FAM at 5’ and the BHQ-1 at 3’ containing the XBP1 sequence (5′FAM-[…]-3′BHQ1) was purchased from Integrated DNA Technologies (IDT). The FRET-based IRE1α RNase activity assay was carried out in reaction buffer containing 20 mM HEPES pH 7.5, 50 mM KOAc, 1 mM MgOAc2, 1 mM DTT, 0.05% v/v TritonX-100, at a total reaction volume of 20 μL in a 384-well black plate (4514, Corning). For unphosphorylated IRE1α (IRE1α), a final concentration of 40 nM IRE1α protein and 100 nM RNA substrate was used. For phosphorylated IRE1 (p-IRE1α), a final concentration of 4 nM p-IRE1α protein and 200 nM RNA substrate was used. The indicated compound and IRE1α protein were incubated for 30 min at room temperature before the substrate was added to the reaction. The plate was then kinetically read over one hour at room temperature using a TECAN Spark plate reader. The measurement was carried out using the fluorescence top reading mode at the excitation wavelength of 485 nm and the emission wavelength of 535 nm with a 10 nm excitation and emission bandwidth. The linear part of the reaction curve was adopted and fitted with sample linear regression to obtain the slope, and the slope was adopted to reflect the reaction rate. The inhibition % was calculated by using the equation: inhibition% = 100 × (slope of DMSO control – slope of the sample)/(slope of DMSO control – slope of blank control), DMSO control: DMSO with protein and RNA substrate; Blank control: DMSO with RNA substrate. The IC50 values were calculated using the concentration-response model in GraphPad Prism 9.

[4] = target: T4, dephosphorylated IRE1α (547–977) (Homo sapiens, UniProt O75460); test: FRET-based IRE1α RNase activity assay, dephosphorylated IRE1α; type: biochemical; details: for IC50: FRET assay; for inhibition at 50 µM: read-out: IRE1α inhibition%
T4 construct: Human IRE1α kinase and RNase domain (residues 547–977) was subcloned into pLIB plasmid; His tag (with TEV cleavage site) (N, cleaved yes); made in house; host or cells: Sf9 insect cells, baculovirus (Bac-to-Bac)
Procedure: as §2
as §3, with “9. […]” for “9.”

[5] = FRET assay, RNase activity, mean (± SEM), read-out: p-IRE1α IC50
[6] = FRET assay, source data, unit from Fig. 3, read-out: p-IRE1a IC50, individual replicates (n1-n4)
[7] = p-IRE1a, individual replicates (n1-n3), Supplementary Fig. 2b, 2c, read-out: IC50
[8] = RNase activity, mean (± SEM), read-out: IRE1α IC50
[9] = source data, unit from Fig. 3 / sheet Fig. 2b, read-out: IRE1a IC50, individual replicates (n1-n4)
[10] = FRET assay at 50 μM, mean (± SEM)
[11] = FRET assay at 50 μM, source data, 50 µM

T4 sequence (O75460 547-977): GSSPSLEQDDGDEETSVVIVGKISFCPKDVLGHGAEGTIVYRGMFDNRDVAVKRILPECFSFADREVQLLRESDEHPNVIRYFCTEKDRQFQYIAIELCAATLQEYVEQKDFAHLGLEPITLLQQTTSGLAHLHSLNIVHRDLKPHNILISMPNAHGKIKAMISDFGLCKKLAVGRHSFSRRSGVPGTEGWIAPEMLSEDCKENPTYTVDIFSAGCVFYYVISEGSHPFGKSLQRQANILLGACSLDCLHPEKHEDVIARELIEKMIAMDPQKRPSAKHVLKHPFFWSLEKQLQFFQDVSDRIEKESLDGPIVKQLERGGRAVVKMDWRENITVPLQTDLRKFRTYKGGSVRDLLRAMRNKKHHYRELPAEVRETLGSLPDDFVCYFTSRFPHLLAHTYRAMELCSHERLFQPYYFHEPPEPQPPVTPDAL
T1 sequence (O75460 547-977): as above
T2 sequence (O75460 547-977): as above
T3 sequence (O75460 547-977): as above

stabilization of IRE1α in DSF [1]: concentration-dependently stabilized
IRE1 ∆Tm(°C) ([1]; compound 6.25 μM): 0.75 °C and 0.95 °C
IRE1 ∆Tm(°C) ([1]; compound 12.5 μM): 1 °C and 0.99 °C
IRE1 ∆Tm(°C) ([1]; compound 25 μM): 1.96 °C and 1.82 °C
IRE1 ∆Tm(°C) ([1]; compound 50 μM): 2.84 °C and 2.57 °C
p-IRE1a ∆Tm(°C) ([2]; compound 6.25 μM): 0.24 °C and 0.45 °C
p-IRE1a ∆Tm(°C) ([2]; compound 12.5 μM): 0.39 °C and 0.62 °C
p-IRE1a ∆Tm(°C) ([2]; compound 25 μM): 1.04 °C and 1.05 °C
p-IRE1a ∆Tm(°C) ([2]; compound 50 μM): 1.49 °C and 1.54 °C
IC50 [3, 5]: 120 nM
IC50 [3, 6]: 176 nM and 68 nM and 105 nM
IC50 [3, 7]: 176 nM and 68 nM and 105 nM
IC50 [4, 8]: 100 nM
IC50 [4, 9]: 73.3 nM and 110 nM and 118 nM
SMILES: COc1ccc2c(c1)c(CCC(=O)O)c(C)n2C(=O)c1cccs1 [IA03]

stabilization of IRE1α in DSF [1]: concentration-dependently stabilized
IRE1 ∆Tm(°C) ([1]; compound 6.25 μM): 0.71 °C and 0.59 °C
IRE1 ∆Tm(°C) ([1]; compound 12.5 μM): 1.19 °C and 1.23 °C
IRE1 ∆Tm(°C) ([1]; compound 25 μM): 1.84 °C and 1.88 °C
IRE1 ∆Tm(°C) ([1]; compound 50 μM): 2.92 °C and 2.84 °C
p-IRE1a ∆Tm(°C) ([2]; compound 6.25 μM): 0.49 °C and 0.43 °C
p-IRE1a ∆Tm(°C) ([2]; compound 12.5 μM): 0.57 °C and 0.74 °C
p-IRE1a ∆Tm(°C) ([2]; compound 25 μM): 1.03 °C and 1.24 °C
p-IRE1a ∆Tm(°C) ([2]; compound 50 μM): 1.59 °C and 1.56 °C
IC50 [3, 5]: 40 nM
IC50 [3, 6]: 57 nM and 41 nM and 21 nM
IC50 [3, 7]: 56.8 nM and 41.3 nM and 21.4 nM
IC50 [4, 8]: 90 nM and 85 nM
IC50 [4, 9]: 63.5 nM and 100 nM and 91.3 nM
SMILES: COc1ccc2c(c1)c(CCC(=O)O)c(C)n2C(=O)c1cccc(C#N)c1 [IA30]

IRE1 ∆Tm(°C) ([1]; compound 6.25 μM): 0.1 °C and -0.04 °C
IRE1 ∆Tm(°C) ([1]; compound 12.5 μM): 0.02 °C and -0.1 °C
IRE1 ∆Tm(°C) ([1]; compound 25 μM): 0.25 °C and 0 °C
IRE1 ∆Tm(°C) ([1]; compound 50 μM): -0.02 °C and 0 °C
SMILES: COc1ccc2c(c1)c(CCC(=O)O)c(C)n2C(=O)c1ccc2ccccc2c1 [IA034]

inhibition at 50 µM [3, 10]: 42.5%
inhibition at 50 µM [4, 10]: 40.3%
SMILES: COc1ccc2c(c1)c(CCCC(=O)O)c(C)n2C(=O)c1ccc(Cl)cc1 [cms02]
p-IRE1a Inhibiton%, individual measurements [3, 11]: 54.5805% and 55.2276% and 56.4075% and 61.6984% and 12.177% and 15.0468%
IRE1a inhibition(%), individual measurements [4, 11]: 64.1986% and 50.8974% and 61.5831% and 7.967% and 17.0403%

inhibition at 50 µM [3, 10]: < 30%
inhibition at 50 µM [4, 10]: < 30%
SMILES: COc1ccc2c(c1)c(CC(=O)OCC(=O)O)c(C)n2C(=O)c1ccc(Cl)cc1 [cms03]

inhibition at 50 µM [3, 10]: < 30%
inhibition at 50 µM [4, 10]: < 30%
SMILES: COC(=O)CCc1c(C)n(C(=O)c2ccc(Cl)cc2)c2ccc(OC)cc12 [cms04]

inhibition at 50 µM [3, 10]: < 30%
inhibition at 50 µM [4, 10]: < 30%
SMILES: CCOC(=O)Cc1c(C)n(C(=O)c2ccc(Cl)cc2)c2ccc(OC)cc12 [cms05]

inhibition at 50 µM [3, 10]: < 30%
inhibition at 50 µM [4, 10]: < 30%
SMILES: COC(=O)CCCc1c(C)n(C(=O)c2ccc(Cl)cc2)c2ccc(OC)cc12 [cms06]

inhibition at 50 µM [3, 10]: < 30%
inhibition at 50 µM [4, 10]: < 30%
SMILES: COc1ccc2c(c1)c(CC(=O)OC(C)C)c(C)n2C(=O)c1ccc(Cl)cc1 [cms07]

inhibition at 50 µM [3, 10]: < 30%
inhibition at 50 µM [4, 10]: < 30%
SMILES: COc1ccc2c(c1)c(C(C)=O)c(C)n2C(=O)c1ccc(Cl)cc1 [cms08]

inhibition at 50 µM [3, 10]: < 30%
inhibition at 50 µM [4, 10]: < 30%
SMILES: COc1ccc2c(c1)c(Cc1ccccc1)c(C)n2C(=O)c1ccc(Cl)cc1 [cms09]

inhibition at 50 µM [3, 10]: < 30%
inhibition at 50 µM [4, 10]: < 30%
SMILES: COc1ccc2c(c1)c(Cc1ccc(O)cc1)c(C)n2C(=O)c1ccc(Cl)cc1 [cms10]

inhibition at 50 µM [3, 10]: < 30%
inhibition at 50 µM [4, 10]: < 30%
SMILES: COc1ccc2c(c1)c(CC(=O)N1CCOCC1)c(C)n2C(=O)c1ccc(Cl)cc1 [cms11]

Inhibiton% @ 50 Μm, mean ([3]; p-IRE1a, @ 50 Μm, mean, Supplementary Fig. 2a): 32.58%
Inhibiton% @ 50 Μm, mean ([4]; IRE1a, @ 50 Μm, mean, Supplementary Fig. 2a): 35.27%
SMILES: COc1ccc2c(c1)c(CC(=O)O)c(C)n2C(=O)c1ccc(N(C)C)cc1 [idm06]
Inhibiton% @ 50 Μm ([3]; p-IRE1a, @ 50 Μm, individual replicates (n1-n3), Supplementary Fig. 2a): 36.04% and 36.79% and 33.53% and 36.40% and 23.29% and 29.46%
Inhibiton% @ 50 Μm ([4]; IRE1a, @ 50 Μm, individual replicates (n1-n3), Supplementary Fig. 2a): 31.43% and 32.06% and 32.96% and 41.19% and 38.68%
